According to publication PMC6832696 (Viruses, 2019):
Like-named read-outs stand apart in the source and are kept apart here.

Experiments:
HIV-1 [1] = details: HIV-1, TZM-bl cells, 24 h
[2] = Toxicity in TZM-bl cells, Cell Tox Green (CTxG) assay (CC50); details: human, mock-infected TZM-bl cells
HIV-1 [3] = experiment: microbe, parasite or virus in culture; details: Human immunodeficiency virus 1, TZM-bl, 24 h, read-out: EC50-2 (reporter protein expression)
FLUAV = experiment: microbe, parasite or virus in culture; type: cell-based; details: Influenza A virus, RPE, 24 h, read-out: EC50-1 (CTG assay)
EV1 [4] = experiment: microbe, parasite or virus in culture; details: Enterovirus B, RPE, 48 h, read-out: EC50-1 (CTG assay)
HSV-2 [5] = system: HSV-2
EV1 [6] = experiment: EV1 production in RPE cells, plaque assay on A549-Npro cells; type: cell-based, echovirus 1; details: obatoclax 0.37 μM, emetine 0.12 μM, homoharringtonine 0.12 μM; titrated on A549-Npro cells
RVFV = experiment: microbe, parasite or virus in culture; type: cell-based; details: Rift Valley fever virus, RPE, 24 h, read-out: EC50-1 (CTG assay)
FLUAV-GFP [7] = experiment: microbe, parasite or virus in culture; details: Influenza A virus, RPE, read-out: Viability of FLUAV-GFP-infected cells (%)
HSV-2 [8] = experiment: HSV-2 production in RPE cells, plaque assay on A549-Npro cells; type: cell-based, herpes simplex virus type 2; details: 0.12 μM obatoclax, 0.04 μM emetine, 0.37 μM niclosamide, 0.37 μM ganciclovir; titrated on A549-Npro cells
RVFV-RFP [9] = details: RPE cells, fluorescent microscopy and CTG assay
in vitro = details: human
FLUAV-GFP [10] = experiment: microbe, parasite or virus in culture; details: Influenza A virus, RPE, 24 h, read-out: EC50-2 (reporter protein expression)
FLUAV-GFP [11] = system: FLUAV-GFP
EV1 [12] = system: EV1
HSV-2 [13] = experiment: microbe, parasite or virus in culture; details: Human alphaherpesvirus 2, RPE, 72 h, read-out: EC50-1 (CTG assay)
HMPV-GFP [14] = system: HMPV-GFP
HMPV-GFP [15] = experiment: microbe, parasite or virus in culture; details: human metapneumovirus, RPE, 96 h, read-out: EC50-2 (reporter protein expression)
[16] = Drug combination experiment: viability of mock-infected RPE cells (CTG); details: human
RVFV-RFP [17] = experiment: microbe, parasite or virus in culture; details: Rift Valley fever virus, RPE, 24 h, read-out: EC50-2 (reporter protein expression)

With `Cc1c(-c2ccc(-c3ccccc3F)cc2)nc2ccc(F)cc2c1C(=O)O` [Brequinar] the “SI (CC50/EC50)” value (HIV-1 [1]) was over 750, the “SI (CC50/EC50)” value (HIV-1 [1]; listed as brequinar) was over 750 and the CC50 at 24 h [2] was over 30 µM. The EC50 (HIV-1 [3]) was 0.04 ± 0.01 µM.

With `CC[C@H]1CN2CCc3cc(OC)c(OC)cc3[C@@H]2C[C@@H]1C[C@H]1NCCc2cc(OC)c(OC)cc21` [Emetine] the EC50 (FLUAV) was 0.13 ± 0.05 µM, the EC50 (EV1 [4]) was 0.12 ± 0.04 µM and the “Initial screening: rescue of HSV-2-infected cells” value (HSV-2 [5]) was “rescued cells from virus-mediated death”. The “SI (CC50/EC50)” value (HSV-2 [5]) was 37, the “EV1 production in RPE cells (plaque assay)” value (from here on “EV1 production in RPE cells”) (EV1 [6]) was “lowered the production of EV1” and the EC50 (RVFV) was 0.1 ± 0.02 µM. For the same compound, the viability at 0.01 µM (FLUAV-GFP [7]) was 50%, the viability at 0.02 µM (FLUAV-GFP [7]) was 51% and the viability at 0.05 µM (FLUAV-GFP [7]) was 66%. The viability at 0.15 µM (FLUAV-GFP [7]) was 68%, the viability at 0.44 µM (FLUAV-GFP [7]) was 76% and the “HSV-2 production in RPE cells (plaque assay)” value (from here on “HSV-2 production in RPE cells”) (HSV-2 [8]) was “lowered the production of HSV-2”. The “RVFV-mediated RFP expression” value (RVFV-RFP [9]) was “inhibited RVFV-mediated RFP expression at non-cytotoxic concentrations”, the CC50 (in vitro) was over 30 µM and the EC50 (FLUAV-GFP [10]) was 0.12 ± 0.03 µM. The “Initial screening: FLUAV-mediated GFP expression” value (FLUAV-GFP [11]) was “lowered GFP expression without detectable cytotoxicity”, the “Initial screening: rescue of EV1-infected cells” value (EV1 [12]) was “rescued cells from virus-mediated death” and the EC50 (HSV-2 [13]) was 0.03 ± 0.01 µM. The “Initial screening: HMPV-mediated GFP expression” value (HMPV-GFP [14]) was “lowered GFP expression without detectable cytotoxicity”, the “SI (CC50/EC50)” value (HMPV-GFP [14]) was 10 and the EC50 (HMPV-GFP [15]) was 0.14 ± 0.05 µM. The viability at 24 h, 0.01 μM [16] was 72%, the viability at 24 h, 0.02 μM [16] was 80% and the viability at 24 h, 0.05 μM [16] was 76%. For the same compound, the viability at 24 h, 0.15 μM [16] was 76%, the viability at 24 h, 0.44 μM [16] was 80% and the EC50 (RVFV-RFP [17]) was 0.43 ± 0.1 µM.

With `Nc1nc(O)c2ncn(COC(CO)CO)c2n1` [Ganciclovir] the “Initial screening: rescue of HSV-2-infected cells” value (HSV-2 [5]) was “rescued cells from virus-mediated death”, the “HSV-2 production in RPE cells” value (HSV-2 [8]) was “lowered the production of HSV-2” and the CC50 (in vitro) was over 30 µM. It also gave an EC50 (HSV-2 [13]) of 0.04 ± 0.01 µM.

With `COC(=O)C[C@](O)(CCCC(C)(C)O)C(=O)O[C@@H]1C(OC)=C[C@]23CCCN2CCc2cc4c(cc2[C@H]13)OCO4` [Homoharringtonine] the EC50 (EV1 [4]) was 0.14 ± 0.03 µM, the “EV1 production in RPE cells” value (EV1 [6]) was “lowered the production of EV1” and the CC50 (in vitro) was over 30 µM. For the same compound, the “Initial screening: rescue of EV1-infected cells” value (EV1 [12]) was “rescued cells from virus-mediated death”.

With `O=C(Nc1ccc([N+](=O)[O-])cc1Cl)c1cc(Cl)ccc1O` [Niclosamide] the “Initial screening: rescue of HSV-2-infected cells” value (HSV-2 [5]) was “rescued cells from virus-mediated death”, the “SI (CC50/EC50)” value (HSV-2 [5]) was 3 and the “HSV-2 production in RPE cells” value (HSV-2 [8]) was “lowered the production of HSV-2”. The CC50 (in vitro) was 1.31 ± 0.02 µM and the EC50 (HSV-2 [13]) was 0.43 ± 0.04 µM.

With `COC1=CC(c2cc3ccccc3[nH]2)=N/C1=C\c1[nH]c(C)cc1C` [Obatoclax] the EC50 (FLUAV) was 0.04 ± 0.01 µM, the EC50 (EV1 [4]) was 0.12 ± 0.01 µM and the “Initial screening: rescue of HSV-2-infected cells” value (HSV-2 [5]) was “rescued cells from virus-mediated death”. The “SI (CC50/EC50)” value (HSV-2 [5]) was 12, the “EV1 production in RPE cells” value (EV1 [6]) was “lowered the production of EV1” and the EC50 (RVFV) was 0.04 ± 0.01 µM. The viability at 0.01 µM (FLUAV-GFP [7]) was 60%, the viability at 0.02 µM (FLUAV-GFP [7]) was 72% and the viability at 0.05 µM (FLUAV-GFP [7]) was 80%. The viability at 0.15 µM (FLUAV-GFP [7]) was 90%, the viability at 0.44 µM (FLUAV-GFP [7]) was 76% and the “HSV-2 production in RPE cells” value (HSV-2 [8]) was “lowered the production of HSV-2”. The “RVFV-mediated RFP expression” value (RVFV-RFP [9]) was “inhibited RVFV-mediated RFP expression at non-cytotoxic concentrations”, the EC50 (FLUAV-GFP [10]) was 0.1 ± 0.01 µM and the “Initial screening: FLUAV-mediated GFP expression” value (FLUAV-GFP [11]) was “lowered GFP expression without detectable cytotoxicity”. The “SI (CC50/EC50)” value (FLUAV-GFP [11]) was 31, the “Initial screening: rescue of EV1-infected cells” value (EV1 [12]) was “rescued cells from virus-mediated death” and the “SI (CC50/EC50)” value (EV1 [12]) was 25. The EC50 (HSV-2 [13]) was 0.1 ± 0.02 µM, the “Initial screening: HMPV-mediated GFP expression” value (HMPV-GFP [14]) was “lowered GFP expression without detectable cytotoxicity” and the EC50 (HMPV-GFP [15]) was 0.12 ± 0.02 µM. For the same compound, the viability at 24 h, 0.01 μM [16] was 81%, the viability at 24 h, 0.02 μM [16] was 77% and the viability at 24 h, 0.05 μM [16] was 78%. It also gave a viability at 24 h, 0.15 μM [16] of 81%, a viability at 24 h, 0.44 μM [16] of 77% and an EC50 (RVFV-RFP [17]) of 0.32 ± 0.09 µM.

In the case of `Cc1ccc(C(=O)Nc2ccc(S(=O)(=O)O)c3cc(S(=O)(=O)O)cc(S(=O)(=O)O)c23)cc1NC(=O)c1cccc(NC(=O)Nc2cccc(C(=O)Nc3cc(C(=O)Nc4ccc(S(=O)(=O)O)c5cc(S(=O)(=O)O)cc(S(=O)(=O)O)c45)ccc3C)c2)c1` [Suramin], the “SI (CC50/EC50)” value (HIV-1 [1]) is reported as over 375, the “SI (CC50/EC50)” value (HIV-1 [1]; listed as suramin) is reported as over 375 and the CC50 at 24 h [2] is reported as over 30 µM. For the same compound, the EC50 (HIV-1 [3]) was 0.08 ± 0.03 µM.
